These results are taken from patent US20200017496A1 (priority 2017, published 2020).

Data set [1] is described as follows: Hydrolysis kinetics in buffers at 37° C., 4 μg/ml (LC-MS, Method 8). The format is physicochemical. The method, then: (§1) Method 8: Hydrolysis Kinetics in Buffers or Plasma Samples at 37° C., 4 μg/ml (Table 9)
(§2) Test compounds were prepared in DMSO at 0.8 mg/ml (relative to the acid AF1). To obtain a concentration of 4 μg/ml, one microliter of test compounds or AF1 was dissolved in 199 μl of buffer or blank plasma. For test compounds, plasma samples and/or buffer samples were kept at 37° C. during 2 h, and 20 μL of mixture were collected at 0 minutes (before heating to 37° C.), 5 minutes, 10 minutes, 20 minutes, 30 minutes, 45 minutes, 60 minutes and 120 minutes. For AF1, 20 μl of plasma samples and/or buffer samples were collected at 0 minutes. All plasma samples were protein precipitated using 3-25 fold volume of acetonitrile, shaken and centrifuged for 20 minutes at 15 000×g, diluted with a varying volume of deionized water. All buffer samples were diluted with a varying volume of deionized water/acetonitrile. The formation of AF1 from test compounds was quantified using LC-MS/MS.

Data set [2] is described as follows: Aqueous solubility by visual inspection (Method 12). The following applies: for solubility: water, thermodynamic from solid.
The nature of data set [3]: Hydrolysis kinetics in buffers at room temperature by 19F-NMR, 1 mg/ml (Method 9). Type of data set: physicochemical. The method, then:
Method 9: Hydrolysis Kinetics in Buffers at Room Temperature by ^19F-NMR, 1 mg/ml (Table 9)
Samples were prepared by solubilizing the ester compound (1 mg) in 900 μL of D2O and 100 μL of adequate buffer (Citrate 100 mM pH 5, Phosphate 100 mM pH 6 and Phosphate 100 mM pH 7.4). After a short sonication to fasten solubilization, the hydrolysis curve of the esters was generated by measuring and comparing the ^19F-NMR signal integrations of both species (ester compound disappearing and the acid form AF1 appearing). T10 and T50, times for respectively 10% and 50% of ester hydrolysis, were determined by interpolation of the hydrolysis curves.

The nature of a further data set: in vitro. Type of data set: in vitro ADME. The note with it: plasma. Here is the method: as §1, §2

Structures are written as SMILES. ≈ marks a conversion by molar mass, not a printed value.

As to `CCOC(=O)C(F)(F)ON1C(=O)N2C[C@H]1CC[C@H]2C(N)=O` [AF1-Et], the “Hydrolysis at 4 μg/ml at 37° C. (LC-MS) T50 (50% degradation time)” value (“Hydrolysis at 4 μg/ml … (50% degradation time)” for short) in data set [1] (Citrate 10 mM pH 5.0), in data set [1] (Phosphate 10 mM pH 6.0) and in data set [1] (Phosphate 10 mM pH 7.4) was <1 min in each case. Also, the solubility in data set [2] is > 1000 µg/mL. Further, in data set [3] (Citrate 10 mM pH 5.0), the “Hydrolysis at 1 mg/ml at room Temperature (NMR) T10 (10% degradation time)” value (shortened to “Hydrolysis at 1 mg/ml … (10% degradation time)”) is 9 min. Besides, the “Hydrolysis at 1 mg/ml at room Temperature (NMR) T50 (50% degradation time)” value (“Hydrolysis at 1 mg/ml … (50% degradation time)” for short) in data set [3] (Citrate 10 mM pH 5.0) is on record as 1 h.
Turning to `NC(=O)[C@@H]1CC[C@@H]2CN1C(=O)N2OC(F)(F)C(=O)OC1C2CC3CC(C2)CC1C3` (stereo partly drawn) [Example 3, 2-adamantyl 2-[[(2S,5R)-2-carbamoyl-7-oxo-1,6-diazabicyclo[3.2.1]octan-6-yl]oxy]-2,2-difluoro-acetate], in data set [2] (room temperature, H2O, visual inspection), the “Aqueous Solubility at room temperature in H2O” value is given as “Low solubility”.
Take `COCC(C)(C)OC(=O)C(F)(F)ON1C(=O)N2C[C@H]1CC[C@H]2C(N)=O` [Example 7, (2-methoxy-1,1-dimethyl-ethyl) 2-[[(2S,5R)-2-carbamoyl-7-oxo-1,6-diazabicyclo[3.2.1]octan-6-yl]oxy]-2,2-difluoro-acetate]: the “Hydrolysis at 4 μg/ml … (50% degradation time)” value in data set [1] (Citrate 10 mM pH 5.0) was 109 min; in data set [1] (Phosphate 10 mM pH 7.4), 23 min. Further, the half-life at 4 µg/ml was 4 min in “in vitro” (dog), 7 min in the data set “in vitro” (human), < 1 min in “in vitro” (mouse) and < 1 min in “in vitro” (rat). This compound also gave a solubility in data set [2] of 6000 µg/mL (≈ 16.4 mM). Moreover, the results for the “Hydrolysis at 1 mg/ml … (10% degradation time)” value in data set [3] (Citrate 10 mM pH 5.0), in data set [3] (Phosphate 10 mM pH 6.0) and in data set [3] (Phosphate 10 mM pH 7.4) were 210 min, 120 min and 37 min, respectively. The “Hydrolysis at 1 mg/ml … (50% degradation time)” value is on record as 27 h in data set [3] (Citrate 10 mM pH 5.0), 20 h in data set [3] (Phosphate 10 mM pH 6.0) and 3.2 h in data set [3] (Phosphate 10 mM pH 7.4).
Consider `CC1(OC(=O)C(F)(F)ON2C(=O)N3C[C@H]2CC[C@H]3C(N)=O)CCOCC1` [Example 8, (4-methyltetrahydropyran-4-yl) 2-[[(2S,5R)-2-carbamoyl-7-oxo-1,6-diazabicyclo[3.2.1]octan-6-yl]oxy]-2,2-difluoro-acetate], for which the “Hydrolysis at 4 μg/ml … (50% degradation time)” value in data set [1] (Citrate 10 mM pH 5.0) is >120 min; in data set [1] (Phosphate 10 mM pH 7.4) it was 39 min. In addition, the half-life at 4 µg/ml in “in vitro” (dog) was 8 min; in the data set “in vitro” (human), 11 min; in “in vitro” (mouse), < 1 min; in the data set “in vitro” (rat), < 1 min. Moreover, the solubility in data set [2] was 1000 µg/mL (≈ 2.65 mM). Further, the figures for the “Hydrolysis at 1 mg/ml … (10% degradation time)” value in data set [3] (Citrate 10 mM pH 5.0), in data set [3] (Phosphate 10 mM pH 6.0) and in data set [3] (Phosphate 10 mM pH 7.4) were 402 min, 162 min and 40 min, respectively. Also, the “Hydrolysis at 1 mg/ml … (50% degradation time)” value was 43 h in data set [3] (Citrate 10 mM pH 5.0), 21 h in data set [3] (Phosphate 10 mM pH 6.0) and 4.5 h in data set [3] (Phosphate 10 mM pH 7.4).
In turn, `COCCOCC(C)(C)OC(=O)C(F)(F)ON1C(=O)N2C[C@H]1CC[C@H]2C(N)=O` [Example 9] had a solubility in data set [2] of 6900 µg/mL (≈ 16.9 mM). Besides, the figures for the “Hydrolysis at 1 mg/ml … (10% degradation time)” value in data set [3] (Citrate 10 mM pH 5.0), in data set [3] (Phosphate 10 mM pH 6.0) and in data set [3] (Phosphate 10 mM pH 7.4) were 192 min, 138 min and 21 min, respectively. In addition, the figures for the “Hydrolysis at 1 mg/ml … (50% degradation time)” value in data set [3] (Citrate 10 mM pH 5.0), in data set [3] (Phosphate 10 mM pH 6.0) and in data set [3] (Phosphate 10 mM pH 7.4) were 20 h, 17 h and 2.6 h, respectively.
As to `COCC(C)(COC)OC(=O)C(F)(F)ON1C(=O)N2C[C@H]1CC[C@H]2C(N)=O` [Example 10, [2-methoxy-1-(methoxymethyl)-1-methyl-ethyl]2-[[(2S,5R)-2-carbamoyl-7-oxo-1,6-diazabicyclo[3.2.1]octan-6-yl]oxy]-2,2-difluoro-acetate], in data set [2], the solubility amounted to 4500 µg/mL (≈ 11.4 mM). For the same compound, the “Hydrolysis at 1 mg/ml … (10% degradation time)” value in data set [3] (Citrate 10 mM pH 5.0) amounted to 210 min; in data set [3] (Phosphate 10 mM pH 6.0), 90 min; in data set [3] (Phosphate 10 mM pH 7.4) it was 12 min. Also, the “Hydrolysis at 1 mg/ml … (50% degradation time)” value in data set [3] (Citrate 10 mM pH 5.0) is reported as 32 h; in data set [3] (Phosphate 10 mM pH 6.0) it was 16 h; in data set [3] (Phosphate 10 mM pH 7.4) it was 1 h.
`COCC1(OC(=O)C(F)(F)ON2C(=O)N3C[C@H]2CC[C@H]3C(N)=O)CCOCC1` [Example 11, [4-(methoxymethyl)tetrahydropyran-4-yl]2-[[(2S,5R)-2-carbamoyl-7-oxo-1,6-diazabicyclo[3.2.1]octan-6-yl]oxy]-2,2-difluoro-acetate] returned a solubility in data set [2] of 1300 µg/mL (≈ 3.19 mM). The “Hydrolysis at 1 mg/ml … (10% degradation time)” value in data set [3] (Citrate 10 mM pH 5.0) was 372 min; in data set [3] (Phosphate 10 mM pH 6.0) it was 120 min; in data set [3] (Phosphate 10 mM pH 7.4), 15 min. In addition, the “Hydrolysis at 1 mg/ml … (50% degradation time)” value is on record as >41 h in data set [3] (Citrate 10 mM pH 5.0), 16 h in data set [3] (Phosphate 10 mM pH 6.0) and 1.3 h in data set [3] (Phosphate 10 mM pH 7.4).
For the compound `NC(=O)[C@@H]1CC[C@@H]2CN1C(=O)N2OC(F)(F)C(=O)OC1CCOCC1` [Example 12, tetrahydropyran-4-yl 2-[[(2S,5R)-2-carbamoyl-7-oxo-1,6-diazabicyclo[3.2.1]octan-6-yl]oxy]-2,2-difluoro-acetate], the “Hydrolysis at 4 μg/ml … (50% degradation time)” value in data set [1] (Citrate 10 mM pH 5.0), in data set [1] (Phosphate 10 mM pH 6.0) and in data set [1] (Phosphate 10 mM pH 7.4) was <1 min in each case. For the same compound, in data set [2], the solubility fell in the range of 500 to 1000 µg/mL (≈ 1.38 to 2.75 mM). Further, the “Hydrolysis at 1 mg/ml … (10% degradation time)” value in data set [3] (Citrate 10 mM pH 5.0) was determined as 15 min. Besides, in data set [3] (Citrate 10 mM pH 5.0), the “Hydrolysis at 1 mg/ml … (50% degradation time)” value worked out at 1.3 h.
As for `COCC(COC)OC(=O)C(F)(F)ON1C(=O)N2C[C@H]1CC[C@H]2C(N)=O` [Example 13, [2-methoxy-1-(methoxymethyl)ethyl]2-[[(2S,5R)-2-carbamoyl-7-oxo-1,6-diazabicyclo[3.2.1]octan-6-yl]oxy]-2,2-difluoro-acetate], the “Hydrolysis at 4 μg/ml … (50% degradation time)” value in data set [1] (Citrate 10 mM pH 5.0), in data set [1] (Phosphate 10 mM pH 6.0) and in data set [1] (Phosphate 10 mM pH 7.4) was <1 min in each case. The solubility in data set [2] is > 1000 µg/mL. For the same compound, the “Hydrolysis at 1 mg/ml … (10% degradation time)” value in data set [3] (Citrate 10 mM pH 5.0) turned out to be 8 min. For the same compound, in data set [3] (Citrate 10 mM pH 5.0), the “Hydrolysis at 1 mg/ml … (50% degradation time)” value came out at 0.933 h.
In the case of `COCCCC(C)(C)OC(=O)C(F)(F)ON1C(=O)N2C[C@H]1CC[C@H]2C(N)=O` [Example 14, (4-methoxy-1,1-dimethyl-butyl) 2-[[(2S,5R)-2-carbamoyl-7-oxo-1,6-diazabicyclo[3.2.1]octan-6-yl]oxy]-2,2-difluoro-acetate], the “Hydrolysis at 4 μg/ml … (50% degradation time)” value in data set [1] (Citrate 10 mM pH 5.0), in data set [1] (Phosphate 10 mM pH 6.0) and in data set [1] (Phosphate 10 mM pH 7.4) was <5 min each time. In data set [2], the solubility worked out at 5100 µg/mL (≈ 13 mM). The “Hydrolysis at 1 mg/ml … (10% degradation time)” value is 5 min in data set [3] (Citrate 10 mM pH 5.0), <25 min in data set [3] (Phosphate 10 mM pH 6.0) and 7 min in data set [3] (Phosphate 10 mM pH 7.4). Besides, the “Hydrolysis at 1 mg/ml … (50% degradation time)” value in data set [3] (Citrate 10 mM pH 5.0) is 0.45 h; in data set [3] (Phosphate 10 mM pH 6.0), <2 h; in data set [3] (Phosphate 10 mM pH 7.4), 0.567 h.
On to `CCCN(CCC)[C@H]1CC[C@H](OC(=O)C(F)(F)ON2C(=O)N3C[C@H]2CC[C@H]3C(N)=O)CC1` [Example 15, [4-(dipropylamino)cyclohexyl]2-[[(2S,5R)-2-carbamoyl-7-oxo-1,6-diazabicyclo[3.2.1]octan-6-yl]oxy]-2,2-difluoro-acetate], for which the “Hydrolysis at 4 μg/ml … (50% degradation time)” value in data set [1] (Citrate 10 mM pH 5.0), in data set [1] (Phosphate 10 mM pH 6.0) and in data set [1] (Phosphate 10 mM pH 7.4) was <1 min throughout. In addition, in data set [2], the solubility was > 1000 µg/mL. Further, the “Hydrolysis at 1 mg/ml … (10% degradation time)” value in data set [3] (Citrate 10 mM pH 5.0) amounted to 7 min. For the same compound, in data set [3] (Citrate 10 mM pH 5.0), the “Hydrolysis at 1 mg/ml … (50% degradation time)” value is 0.567 h.
